Assay results: patent US11981658B2, “Substituted aminopyridine compounds as EGFR inhibitors” (YUHAN CORPORATION, priority 2021, dated 2024)
Like-named read-outs stand apart in the source and are kept apart here.

Key:
[1] = target: EGFR Del19/T790M/C797S (Homo sapiens, UniProt P00533, C797S/DEL746-750/T790M); assay: Biochemical EGFR kinase inhibition assay (Lance Ultra TR-FRET), triple mutant del19/T790M/C797S
How it was run: (§1)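 Step 1: compound in kinase buffer, 0.003–10 μM. Step 2: kinase reaction 1 h at room temperature. Step 4: TR-FRET read at 615/665 nm; IC50 calculated.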

[2] = target: EGFR L858R/T790M/C797S (Homo sapiens, UniProt P00533, C797S/L858R/T790M); assay: Biochemical EGFR kinase inhibition assay (Lance Ultra TR-FRET), triple mutant L858R/T790M/C797S
How it was run: as §1

[3] = target: EGFR Del19/C797S (Homo sapiens, UniProt P00533, C797S/DEL746-750); assay: Biochemical EGFR kinase inhibition assay (Lance Ultra TR-FRET), double mutant del19/C797S
How it was run: as §1

[4] = target: EGFR L858R/C797S (Homo sapiens, UniProt P00533, C797S/L858R); assay: Biochemical EGFR kinase inhibition assay (Lance Ultra TR-FRET), double mutant L858R/C797S
How it was run: as §1

[5] = target: EGFR wildtype (WT) (Homo sapiens, UniProt P00533); assay: Biochemical EGFR kinase inhibition assay (Lance Ultra TR-FRET), wildtype
How it was run: as §1

[6] = ATP at Km, read-out: IC50 Del19/T790M/C797S (nM), Km ATP
[7] = IC50 Del19/T790M/C797S (nM), 100 μM ATP
[8] = ATP at Km, read-out: IC50 L858R/T790M/C797S (nM), Km ATP
[9] = IC50 L858R/T790M/C797S (nM), 100 μM ATP
[10] = ATP at Km, read-out: IC50 Del19/C797S (nM), Km ATP
[11] = IC50 Del19/C797S (nM), 100 μM ATP
[12] = ATP at Km, read-out: IC50 L858R/C797S (nM), Km ATP
[13] = IC50 L858R/C797S (nM), 100 μM ATP
[14] = ATP at Km, read-out: IC50 WT (nM), Km ATP
[15] = Km ATP, read-out: IC50 Del19/T790M/C797S (nM), Km ATP
[16] = Km ATP, read-out: IC50 L858R/T790M/C797S (nM), Km ATP
[17] = Km ATP, read-out: IC50 Del19/C797S (nM), Km ATP
[18] = Km ATP, read-out: IC50 L858R/C797S (nM), Km ATP
[19] = Km ATP, read-out: IC50 WT (nM), Km ATP
[20] = Km ATP, read-out: IC50 Del19/T790M/C797S (nM) Km ATP
[21] = Km ATP, read-out: IC50 L858R/T790M/C797S (nM) Km ATP
[22] = Km ATP, read-out: IC50 Del19/C797S (nM) Km ATP
[23] = Km ATP, read-out: IC50 L858R/C797S (nM) Km ATP
[24] = Km ATP, read-out: IC50 WT (nM) Km ATP

EGFR Del19/T790M/C797S, sequence (P00533 with tags, fused parts or gaps DEL746-750/T790M/C797S): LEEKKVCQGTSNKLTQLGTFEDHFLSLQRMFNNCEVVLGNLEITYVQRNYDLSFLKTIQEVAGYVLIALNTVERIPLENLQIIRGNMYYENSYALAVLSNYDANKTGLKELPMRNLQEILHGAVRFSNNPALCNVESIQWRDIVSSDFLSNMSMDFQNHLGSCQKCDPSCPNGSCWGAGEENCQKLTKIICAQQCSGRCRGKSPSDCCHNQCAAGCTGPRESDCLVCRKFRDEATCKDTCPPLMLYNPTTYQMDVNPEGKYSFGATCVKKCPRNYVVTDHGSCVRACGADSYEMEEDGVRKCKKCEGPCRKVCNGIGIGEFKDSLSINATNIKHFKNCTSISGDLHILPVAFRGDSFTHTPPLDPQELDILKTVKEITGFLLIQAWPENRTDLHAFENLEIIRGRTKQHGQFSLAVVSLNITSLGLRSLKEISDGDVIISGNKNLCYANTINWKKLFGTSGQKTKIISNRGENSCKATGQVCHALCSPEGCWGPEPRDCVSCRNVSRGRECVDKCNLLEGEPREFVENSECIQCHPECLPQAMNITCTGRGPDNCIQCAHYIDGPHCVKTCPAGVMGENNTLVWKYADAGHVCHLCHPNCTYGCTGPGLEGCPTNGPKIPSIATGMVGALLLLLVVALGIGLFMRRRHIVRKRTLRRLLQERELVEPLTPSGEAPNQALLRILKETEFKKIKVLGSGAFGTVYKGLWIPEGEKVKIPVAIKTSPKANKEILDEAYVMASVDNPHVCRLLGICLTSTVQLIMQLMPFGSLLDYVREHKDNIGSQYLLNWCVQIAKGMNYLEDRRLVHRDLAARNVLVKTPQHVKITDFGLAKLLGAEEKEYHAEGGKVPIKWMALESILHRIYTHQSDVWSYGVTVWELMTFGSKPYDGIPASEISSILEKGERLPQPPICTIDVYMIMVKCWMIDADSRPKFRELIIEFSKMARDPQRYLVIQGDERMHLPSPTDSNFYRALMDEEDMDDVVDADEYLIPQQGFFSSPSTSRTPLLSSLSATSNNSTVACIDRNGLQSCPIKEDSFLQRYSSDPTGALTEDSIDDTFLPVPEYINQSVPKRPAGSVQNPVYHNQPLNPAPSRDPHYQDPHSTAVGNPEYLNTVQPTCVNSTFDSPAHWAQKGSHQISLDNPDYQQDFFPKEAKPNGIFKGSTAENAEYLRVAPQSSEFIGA
EGFR wildtype (WT), sequence (P00533 25-1210): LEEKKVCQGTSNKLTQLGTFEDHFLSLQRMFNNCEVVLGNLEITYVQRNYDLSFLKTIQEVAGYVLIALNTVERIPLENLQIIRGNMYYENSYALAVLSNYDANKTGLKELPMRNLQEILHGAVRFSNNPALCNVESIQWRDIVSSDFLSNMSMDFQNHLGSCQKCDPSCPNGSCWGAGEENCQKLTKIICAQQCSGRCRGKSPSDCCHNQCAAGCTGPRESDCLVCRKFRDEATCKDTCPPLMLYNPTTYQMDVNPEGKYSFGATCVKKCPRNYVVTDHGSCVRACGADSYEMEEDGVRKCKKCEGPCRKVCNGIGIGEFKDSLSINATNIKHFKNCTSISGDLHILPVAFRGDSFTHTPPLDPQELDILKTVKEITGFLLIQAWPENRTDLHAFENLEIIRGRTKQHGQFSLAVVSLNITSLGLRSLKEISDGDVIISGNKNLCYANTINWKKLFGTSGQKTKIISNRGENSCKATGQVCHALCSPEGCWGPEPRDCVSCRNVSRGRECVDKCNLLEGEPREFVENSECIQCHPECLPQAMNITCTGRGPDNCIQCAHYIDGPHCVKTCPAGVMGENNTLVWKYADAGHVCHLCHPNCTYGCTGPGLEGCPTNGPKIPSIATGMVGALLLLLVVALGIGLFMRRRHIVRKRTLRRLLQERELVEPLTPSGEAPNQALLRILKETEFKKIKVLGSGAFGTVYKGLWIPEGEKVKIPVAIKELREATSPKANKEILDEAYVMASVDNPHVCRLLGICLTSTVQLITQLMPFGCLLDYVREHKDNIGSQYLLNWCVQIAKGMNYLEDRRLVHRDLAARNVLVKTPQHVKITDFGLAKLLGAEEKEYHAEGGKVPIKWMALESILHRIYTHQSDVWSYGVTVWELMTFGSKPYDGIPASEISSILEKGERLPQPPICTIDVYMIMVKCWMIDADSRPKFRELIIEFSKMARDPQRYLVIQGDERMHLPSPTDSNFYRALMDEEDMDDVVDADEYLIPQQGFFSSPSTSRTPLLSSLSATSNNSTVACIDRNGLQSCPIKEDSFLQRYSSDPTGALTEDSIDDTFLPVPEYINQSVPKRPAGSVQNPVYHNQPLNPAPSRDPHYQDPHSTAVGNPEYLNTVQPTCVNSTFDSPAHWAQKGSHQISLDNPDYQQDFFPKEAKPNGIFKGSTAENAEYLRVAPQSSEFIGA
EGFR L858R/C797S, sequence (P00533 25-1210 C797S/L858R): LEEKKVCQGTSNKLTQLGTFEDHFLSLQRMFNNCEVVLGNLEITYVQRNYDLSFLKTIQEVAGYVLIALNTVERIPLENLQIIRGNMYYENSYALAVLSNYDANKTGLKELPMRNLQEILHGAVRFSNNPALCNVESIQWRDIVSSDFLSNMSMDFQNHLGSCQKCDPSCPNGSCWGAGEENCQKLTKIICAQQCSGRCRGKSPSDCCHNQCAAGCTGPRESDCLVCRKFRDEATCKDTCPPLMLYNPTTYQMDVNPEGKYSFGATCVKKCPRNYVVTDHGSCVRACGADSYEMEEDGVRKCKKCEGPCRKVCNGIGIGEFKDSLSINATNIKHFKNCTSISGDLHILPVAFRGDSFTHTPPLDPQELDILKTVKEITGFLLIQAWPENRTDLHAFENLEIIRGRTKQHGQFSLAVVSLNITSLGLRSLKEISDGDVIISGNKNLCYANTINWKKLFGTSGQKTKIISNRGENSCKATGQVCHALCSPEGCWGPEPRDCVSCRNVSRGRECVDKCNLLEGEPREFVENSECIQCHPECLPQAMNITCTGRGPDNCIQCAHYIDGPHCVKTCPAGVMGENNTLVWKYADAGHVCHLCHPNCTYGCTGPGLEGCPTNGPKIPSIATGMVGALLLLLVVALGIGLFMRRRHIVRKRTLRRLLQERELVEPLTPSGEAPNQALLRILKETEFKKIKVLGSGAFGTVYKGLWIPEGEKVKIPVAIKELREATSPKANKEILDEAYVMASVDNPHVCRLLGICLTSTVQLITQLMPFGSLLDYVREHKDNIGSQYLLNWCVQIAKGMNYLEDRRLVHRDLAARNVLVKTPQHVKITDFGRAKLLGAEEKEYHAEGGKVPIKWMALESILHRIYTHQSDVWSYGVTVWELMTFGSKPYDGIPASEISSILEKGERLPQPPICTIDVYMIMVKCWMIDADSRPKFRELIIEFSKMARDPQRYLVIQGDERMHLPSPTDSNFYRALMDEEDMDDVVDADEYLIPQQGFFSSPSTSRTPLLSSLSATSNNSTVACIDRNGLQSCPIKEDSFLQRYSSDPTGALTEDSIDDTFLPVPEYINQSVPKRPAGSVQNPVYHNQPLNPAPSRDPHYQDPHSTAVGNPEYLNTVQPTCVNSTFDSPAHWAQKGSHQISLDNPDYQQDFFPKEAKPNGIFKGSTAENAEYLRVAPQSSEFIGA
EGFR L858R/T790M/C797S, sequence (P00533 25-1210 T790M/C797S/L858R): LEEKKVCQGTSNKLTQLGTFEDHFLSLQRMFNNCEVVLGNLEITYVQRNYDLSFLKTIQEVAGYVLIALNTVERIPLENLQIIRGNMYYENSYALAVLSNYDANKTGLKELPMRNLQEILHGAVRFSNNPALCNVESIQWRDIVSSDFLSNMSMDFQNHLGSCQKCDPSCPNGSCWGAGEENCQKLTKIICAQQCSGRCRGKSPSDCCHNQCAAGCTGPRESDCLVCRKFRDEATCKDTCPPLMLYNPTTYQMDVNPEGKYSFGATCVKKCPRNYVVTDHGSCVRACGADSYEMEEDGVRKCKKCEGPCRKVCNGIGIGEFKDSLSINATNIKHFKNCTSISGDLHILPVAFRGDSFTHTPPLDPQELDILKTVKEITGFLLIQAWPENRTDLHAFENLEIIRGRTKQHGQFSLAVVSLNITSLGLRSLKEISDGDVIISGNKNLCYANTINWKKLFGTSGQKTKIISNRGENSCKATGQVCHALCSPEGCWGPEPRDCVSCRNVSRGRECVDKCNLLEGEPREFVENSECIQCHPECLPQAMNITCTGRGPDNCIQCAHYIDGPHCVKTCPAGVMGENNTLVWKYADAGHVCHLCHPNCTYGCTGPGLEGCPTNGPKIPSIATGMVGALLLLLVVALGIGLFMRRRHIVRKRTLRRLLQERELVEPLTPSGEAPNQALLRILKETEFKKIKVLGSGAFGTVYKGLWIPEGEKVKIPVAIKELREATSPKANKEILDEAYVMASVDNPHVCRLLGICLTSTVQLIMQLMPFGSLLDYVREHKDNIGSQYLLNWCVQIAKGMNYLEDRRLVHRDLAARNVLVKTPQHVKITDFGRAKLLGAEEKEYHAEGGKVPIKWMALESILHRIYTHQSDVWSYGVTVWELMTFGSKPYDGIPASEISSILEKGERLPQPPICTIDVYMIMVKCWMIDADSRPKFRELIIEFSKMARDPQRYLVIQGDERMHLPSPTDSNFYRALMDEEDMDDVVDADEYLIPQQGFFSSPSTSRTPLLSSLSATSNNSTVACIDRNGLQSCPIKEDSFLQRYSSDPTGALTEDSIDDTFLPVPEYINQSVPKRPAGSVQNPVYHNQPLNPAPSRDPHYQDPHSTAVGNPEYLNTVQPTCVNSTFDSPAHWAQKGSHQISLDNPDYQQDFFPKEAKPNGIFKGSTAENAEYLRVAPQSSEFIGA

SMILES	IC50 [1, 6] [nM]	IC50 [1, 7] [nM]	IC50 [2, 8] [nM]	IC50 [2, 9] [nM]	IC50 [3, 10] [nM]	IC50 [3, 11] [nM]	IC50 [4, 12] [nM]	IC50 [4, 13] [nM]	IC50 [5, 14] [nM]	IC50 ([5]; IC50 WT (nM), 100 μM ATP) [nM]	IC50 [1, 15] [nM]	IC50 [2, 16] [nM]	IC50 [3, 17] [nM]	IC50 [4, 18] [nM]	IC50 [5, 19] [nM]	IC50 [1, 20] [nM]	IC50 [2, 21] [nM]	IC50 [3, 22] [nM]	IC50 [4, 23] [nM]	IC50 [5, 24] [nM]
CN(C)CC1(C)CCN(c2cc(Nc3ccnc(-c4cnn(S(=O)(=O)C5CC5)c4)n3)ncc2C#Cc2cnn(CC(F)F)c2)CC1 [Example 302, 2-(1-(Cyclopropylsulfonyl)-1H-pyrazol-4-yl)-N-(5-((1-(2,2-difluoroethyl)-1H-pyrazol-4-yl)ethynyl)-4-(4-((dimethylamino)methyl)-4-methylpiperidin-1-yl)pyridin-2-yl)pyrimidin-4-amine]	0.1	0.3	0.1	0.3	0.8	0.7	1.5	11.5	5	2690										
O=S(=O)(C1CC1)n1cc(-c2nccc(Nc3cc(NC4CCC(O)CC4)c(C#CC4(F)CCOC4)cn3)n2)cn1 (stereo not drawn) [Example 436, (1s,4s)-4-((2-((2-(1-(Cyclopropylsulfonyl)-1H-pyrazol-4-yl)pyrimidin-4-yl)amino)-5-((3-fluorotetrahydrofuran-3-yl)ethynyl)pyridin-4-yl)amino)cyclohexan-1-ol]		0.2		0.3		3.1		111		> 10000	0.1	0.1	1.7	2.5	12.5					
CC(C)Nc1cc(Nc2ccnc(-c3cnn(S(=O)(=O)C4CC4)c3)n2)ncc1C#Cc1cnn(CC(F)F)c1 [Example 23, N^2-(2-(1-(Cyclopropylsulfonyl)-1H-pyrazol-4-yl)pyrimidin-4-yl)-5-((1-(2,2-difluoroethyl)-1H-pyrazol-4-yl)ethynyl)-N^4-isopropylpyridine-2,4-diamine]																1.6	7.1	77.7	92.5	907
CC(C)n1cc(C#Cc2cnc(Nc3ccnc(-c4cnn(S(=O)(=O)C5CC5)c4)n3)cc2OC[C@H]2CC[C@H](CN(C)C)CC2)cn1 [Example 59, 2-(1-(Cyclopropylsulfonyl)-1H-pyrazol-4-yl)-N-(4-(((1r,4r)-4-((dimethylamino)methyl)cyclohexyl)methoxy)-5-((1-isopropyl-1H-pyrazol-4-yl)ethynyl)pyridin-2-yl)pyrimidin-4-amine]		1.4		0.7		2.6				> 10000						0.6	0.1	1.1	1.7	19.2
CC1OCCC1C#Cc1cnc(Nc2ccnc(-c3cnn(S(=O)(=O)C4CC4)c3)n2)cc1N1CCC(C)(O)CC1 (stereo not drawn) [Example 432, 1-(2-((2-(1-(Cyclopropylsulfonyl)-1H-pyrazol-4-yl)pyrimidin-4-yl)amino)-5-((2-methyltetrahydrofuran-3-yl)ethynyl)pyridin-4-yl)-4-methylpiperidin-4-ol]		0.6		0.7		5.2		141		> 10000	0.4	0.3	3.1	5.3	11.4					
O=S(=O)(C1CC1)N1CCC(C#Cc2cnc(Nc3ccnc(-c4cnn(S(=O)(=O)C5CC5)c4)n3)cc2NC[C@H]2CC[C@H](CO)CC2)CC1 [Example 392, ((1r,4r)-4-(((2-((2-(1-(Cyclopropylsulfonyl)-1H-pyrazol-4-yl)pyrimidin-4-yl)amino)-5-((1-(cyclopropylsulfonyl)piperidin-4-yl)ethynyl)pyridin-4-yl)amino)methyl)cyclohexyl)methanol]		22		60.1		212		4300		> 10000										

Now from value to molecule:

IC50 [1, 6] [nM]	IC50 [1, 7] [nM]	IC50 [2, 8] [nM]	IC50 [2, 9] [nM]	IC50 [3, 10] [nM]	IC50 [3, 11] [nM]	IC50 [4, 12] [nM]	IC50 [4, 13] [nM]	IC50 [5, 14] [nM]	IC50 ([5]; IC50 WT (nM), 100 μM ATP) [nM]	IC50 [1, 15] [nM]	IC50 [2, 16] [nM]	IC50 [3, 17] [nM]	IC50 [4, 18] [nM]	IC50 [5, 19] [nM]	IC50 [1, 20] [nM]	IC50 [2, 21] [nM]	IC50 [3, 22] [nM]	IC50 [4, 23] [nM]	IC50 [5, 24] [nM]	SMILES
0.5	0.4	0.3	0.8	3	3.6	14.2	104	40.1	> 10000											O=S(=O)(C1CC1)n1cc(-c2nccc(Nc3cc(N[C@H]4CC[C@@H](O)CC4)c(C#CC4(O)CCCC4)cn3)n2)cn1 [Example 176, (1s,4s)-4-((2-((2-(1-(Cyclopropylsulfonyl)-1H-pyrazol-4-yl)pyrimidin-4-yl)amino)-5-((1-hydroxycyclopentyl)ethynyl)pyridin-4-yl)amino)cyclohexan-1-ol]
1.2	0.6	0.5	0.6	1.3	1	1.3	4.2	6.2	2500											CC1(CO)CCN(c2cc(Nc3ccnc(-c4cnn(S(=O)(=O)C5CC5)c4)n3)ncc2C#Cc2cccc(C(=O)N3CCOCC3)c2)CC1 [Example 261, (3-((6-((2-(1-(Cyclopropylsulfonyl)-1H-pyrazol-4-yl)pyrimidin-4-yl)amino)-4-(4-(hydroxymethyl)-4-methylpiperidin-1-yl)pyridin-3-yl)ethynyl)phenyl)(morpholino)methanone]
0.2	0.1	0.1	0.1	0.5	0.3	0.4	2.7	2.8	1100											CN1CCC(C#Cc2cnc(Nc3ccnc(-c4cnn(S(=O)(=O)C5CC5)c4)n3)cc2N2CCC(C)(CO)CC2)C1 (stereo not drawn) [Example 180, (1-(2-((2-(1-(Cyclopropylsulfonyl)-1H-pyrazol-4-yl)pyrimidin-4-yl)amino)-5-((1-methylpyrrolidin-3-yl)ethynyl)pyridin-4-yl)-4-methylpiperidin-4-yl)methanol]
	1.3		4.2		131		46.4		> 10000											COCCNC1CCN(c2cc(Nc3ccnc(-c4cnn(S(=O)(=O)C5CC5)c4)n3)ncc2C#Cc2cnn(C)c2)CC1 [Example 132, 2-(1-(Cyclopropylsulfonyl)-1H-pyrazol-4-yl)-N-(4-(4-((2-methoxyethyl)amino)piperidin-1-yl)-5-((1-methyl-1H-pyrazol-4-yl)ethynyl)pyridin-2-yl)pyrimidin-4-amine]
	5.9		18.2		1720		813		> 10000											CC(C)(C#Cc1cnc(Nc2ccnc(-c3cnn(S(=O)(=O)C4CC4)c3)n2)cc1N[C@H]1CC[C@@H](O)CC1)N1CCOCC1 [Example 230, (1s,4s)-4-((2-((2-(1-(Cyclopropylsulfonyl)-1H-pyrazol-4-yl)pyrimidin-4-yl)amino)-5-(3-methyl-3-morpholinobut-1-yn-1-yl)pyridin-4-yl)amino)cyclohexan-1-ol]
	0.7		2.6		50.8		35.6		> 10000											Cn1cc(C#Cc2cnc(Nc3ccnc(-c4cnn(S(=O)(=O)C5CC5)c4)n3)cc2N2CCC(NCCO)CC2)cn1 [Example 131, 2-((1-(2-((2-(1-(Cyclopropylsulfonyl)-1H-pyrazol-4-yl)pyrimidin-4-yl)amino)-5-((1-methyl-1H-pyrazol-4-yl)ethynyl)pyridin-4-yl)piperidin-4-yl)amino)ethan-1-ol]
2.2		1.4		68.1		110		437												CC(C)Nc1cc(Nc2ccnc(-c3cnn(S(=O)(=O)C4CC4)c3)n2)ncc1C#CCN1CCCC1 [Example 203, N^2-(2-(1-(Cyclopropylsulfonyl)-1H-pyrazol-4-yl)pyrimidin-4-yl)-N^4-isopropyl-5-(3-(pyrrolidin-1-yl)prop-1-yn-1-yl)pyridine-2,4-diamine]
